Results as given in ChEMBL document CHEMBL1155728, “New steroid glycosides from the starfish Asterias rathbuni” (J Nat Prod, 2001).

What was measured:
Design in all cases: species or system Egg
[1] = Inhibition of cell division of fertilized eggs of Strongylocentrotus intermedius at 7 X 10 ' -5 M; settings: fertilized sea urchin eggs
[2] = Inhibition of cell division of fertilized eggs of Strongylocentrotus intermedius
[3] = Inhibition of cell division of fertilized eggs of Strongylocentrotus intermedius at 2.9 X 10 ' -5 M; settings: fertilized sea urchin eggs

Compound	IC100 [2] [×10⁻⁴ M]	other results
CC(C)[C@H](CC[C@@H](C)[C@H]1C[C@@H](O)[C@H]2[C@@H]3C[C@H](O)[C@H]4C[C@@H](O)CC[C@]4(C)[C@H]3CC[C@@]21C)O[C@@H]1OC[C@@H](O)[C@H](O)[C@H]1O [RATHBUNIOSIDE R1]		inhibition at 70 µM [1]: 100%
CC(C)[C@H](CC[C@@H](C)[C@H]1C[C@H](O)[C@H]2[C@@H]3C[C@@H](O)[C@@]4(O)C[C@@H](O)CC[C@]4(C)[C@H]3CC[C@@]21C)O[C@@H]1OC[C@@H](O)[C@H](O)[C@H]1O [RATHBUNIOSIDE R2]	1.7	
CC(C)[C@H](CC[C@@H](C)[C@H]1C[C@H](OS(=O)(=O)[O-])[C@H]2[C@@H]3C[C@H](O)[C@H]4C[C@@H](O)CC[C@]4(C)[C@H]3CC[C@@]21C)O[C@@H]1OC[C@@H](O)[C@H](O)[C@H]1O.[Na+] [AMURENSOSIDE A]	1.9	
CC(C)=CC(=O)C[C@@H](C)[C@H]1CC[C@H]2[C@@H]3C[C@H](O)[C@H]4C[C@@H](OS(=O)(=O)O)CC[C@]4(C)C3=CC[C@]12C		inhibition at 29 µM [3]: 100%
